Laboratory results as given in ChEMBL document CHEMBL1201862, “PubChem BioAssay data set” (2004).
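Tested at 5 concentrations; 48 h exposure; 96-well plates; endpoints linearly interpolated, else capped at highest concentration. GI50: concentration for 50% inhibition of growth.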 The source made the active and inactive calls. Rule as the data show it: active = GI50 up to about 1.1 µM and inactive = higher.

Columns and labels:
Assay in all cases: NCI anticancer screen, dose series, 48 h
COLO 205 = system: COLO 205
MOLT-4 = system: MOLT-4
K562 = system: K562
SF-295 = system: SF-295
OVCAR-3 = system: OVCAR-3
SK-OV-3 = system: SK-OV-3
NCI-H460 = system: NCI-H460
MCF7 = system: MCF7
OVCAR-5 = system: OVCAR-5
HCT-116 = system: HCT-116
SK-MEL-2 = system: SK-MEL-2
NCI-H522 = system: NCI-H522
UACC-257 = system: UACC-257
SW-620 = system: SW-620
SK-MEL-28 = system: SK-MEL-28
HT-29 = system: HT-29
M14 = system: M14
HOP-62 = system: HOP-62
A549 = system: A549
HOP-92 = system: HOP-92

Measured: GI50

CCN(CC)c1nnc(CCCCCCCCc2nnc(N(CC)CC)o2)o1
inactive: COLO 205 > 100 µM | MOLT-4 > 100 µM | K562 > 100 µM | SF-295 > 100 µM | OVCAR-3 > 100 µM | SK-OV-3 > 100 µM | NCI-H460 > 100 µM | MCF7 > 100 µM | OVCAR-5 > 100 µM | HCT-116 > 100 µM | SK-MEL-2 > 100 µM | NCI-H522 > 100 µM | UACC-257 > 100 µM | SW-620 > 100 µM | SK-MEL-28 > 100 µM | HT-29 > 100 µM | M14 > 100 µM | HOP-62 > 100 µM | A549 > 100 µM | HOP-92 > 100 µM

CC(C)N1CCCOC(c2ccc([N+](=O)[O-])cc2)O1 (stereo not given)
inactive: COLO 205 > 100 µM | MOLT-4 > 100 µM | K562 > 100 µM | SF-295 > 100 µM | OVCAR-3 > 100 µM | SK-OV-3 > 100 µM | NCI-H460 > 100 µM | MCF7 80.9 µM | OVCAR-5 > 100 µM | HCT-116 > 100 µM | SK-MEL-2 > 100 µM | NCI-H522 > 100 µM | UACC-257 > 100 µM | SW-620 > 100 µM | SK-MEL-28 > 100 µM | HT-29 > 100 µM | M14 > 100 µM | HOP-62 > 100 µM | A549 > 100 µM | HOP-92 > 100 µM

NCC1CCN(c2nc3ccccc3c3c2CCCC3)CC1
inactive: COLO 205 1.61 µM | MOLT-4 3.59 µM | K562 2.54 µM | SF-295 12.9 µM | OVCAR-3 9.75 µM | SK-OV-3 14.7 µM | NCI-H460 5.06 µM | MCF7 4.86 µM | OVCAR-5 11.9 µM | HCT-116 3.07 µM | SK-MEL-2 5.73 µM | NCI-H522 6.22 µM | UACC-257 2.68 µM | SW-620 2.86 µM | SK-MEL-28 5.15 µM | HT-29 2.42 µM | M14 1.92 µM | HOP-62 14.7 µM | A549 11.2 µM | HOP-92 9.04 µM

CC(=O)[C@@]1(O)CC[C@H]2[C@@H]3C[C@H](C)C4=CC(=O)CC[C@]4(C)[C@H]3[C@@H](O)C[C@@]21C
inactive: COLO 205 > 100 µM | MOLT-4 46 µM | K562 > 100 µM | SF-295 > 100 µM | OVCAR-3 > 100 µM | SK-OV-3 > 100 µM | NCI-H460 > 100 µM | MCF7 > 100 µM | OVCAR-5 > 100 µM | HCT-116 > 100 µM | SK-MEL-2 > 100 µM | NCI-H522 73.6 µM | UACC-257 > 100 µM | SW-620 > 100 µM | SK-MEL-28 > 100 µM | HT-29 > 100 µM | M14 > 100 µM | HOP-62 > 100 µM | A549 60.1 µM | HOP-92 > 100 µM

CC1(C)OCC(C2OC3OC(C)(C)OC3C2N)O1 (stereo not given)
inactive: COLO 205 > 100 µM | MOLT-4 > 100 µM | K562 > 100 µM | SF-295 > 100 µM | OVCAR-3 > 100 µM | SK-OV-3 > 100 µM | NCI-H460 > 100 µM | MCF7 > 100 µM | OVCAR-5 > 100 µM | HCT-116 > 100 µM | SK-MEL-2 > 100 µM | NCI-H522 > 100 µM | UACC-257 > 100 µM | SW-620 > 100 µM | SK-MEL-28 > 100 µM | HT-29 > 100 µM | M14 > 100 µM | HOP-62 > 100 µM | A549 > 100 µM | HOP-92 > 100 µM

O=C1Nc2ccccc2C1=Nc1ccc(S(=O)(=O)Nc2nccs2)cc1
inactive: COLO 205 > 100 µM | MOLT-4 > 100 µM | K562 > 100 µM | SF-295 > 100 µM | OVCAR-3 > 100 µM | SK-OV-3 > 100 µM | NCI-H460 > 100 µM | MCF7 > 100 µM | OVCAR-5 > 100 µM | HCT-116 > 100 µM | SK-MEL-2 > 100 µM | NCI-H522 > 100 µM | UACC-257 > 100 µM | SW-620 > 100 µM | SK-MEL-28 > 100 µM | HT-29 > 100 µM | M14 > 100 µM | HOP-62 > 100 µM | A549 > 100 µM | HOP-92 > 100 µM
